Data set [1] relates to Human immunodeficiency virus 1. The experiment in a line: Antiviral activity against HIV1 3B in human MT4 cells. Format: functional, organism-based. The note with it: Human immunodeficiency virus 1, 3B.
Data set [2] concerns the target T1, Prostaglandin G/H synthase 2 (Mus musculus) (UniProt Q05769).
T1 sequence (whole entry): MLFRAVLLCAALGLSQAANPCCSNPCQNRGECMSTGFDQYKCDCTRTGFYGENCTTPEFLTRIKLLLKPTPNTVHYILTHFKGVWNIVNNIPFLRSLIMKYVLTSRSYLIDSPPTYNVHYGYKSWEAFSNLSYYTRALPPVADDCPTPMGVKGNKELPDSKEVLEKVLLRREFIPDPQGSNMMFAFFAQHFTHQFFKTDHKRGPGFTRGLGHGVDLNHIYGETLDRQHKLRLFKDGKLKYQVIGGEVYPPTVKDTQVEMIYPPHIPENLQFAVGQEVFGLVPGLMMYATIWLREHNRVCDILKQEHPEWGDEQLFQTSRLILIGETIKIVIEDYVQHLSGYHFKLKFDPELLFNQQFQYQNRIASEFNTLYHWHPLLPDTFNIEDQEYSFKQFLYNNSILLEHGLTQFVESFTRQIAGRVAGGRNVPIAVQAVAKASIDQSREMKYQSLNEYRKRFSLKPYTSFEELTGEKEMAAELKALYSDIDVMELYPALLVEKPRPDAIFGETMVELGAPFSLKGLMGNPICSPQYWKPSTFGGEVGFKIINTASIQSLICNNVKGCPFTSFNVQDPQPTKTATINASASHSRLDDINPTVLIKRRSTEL
Description: Inhibition of COX2 in mouse J774 cells at 1 uM. It counts as cell-based.

The target in data set [3] is T1, Prostaglandin G/H synthase 2 (Mus musculus). The experiment in a line: Inhibition of COX2 in mouse J774 cells at 10 uM. Format: cell-based.
A short description of data set [4]: Selectivity index, ratio of inhibition of human MT4 cells to EC50 for HIV1 3B. It counts as toxicity, cell-based. The note with it: read-out: Selectivity Index.
Data set [5] has as its system Rattus norvegicus. The experiment in a line: Antiinflammatory activity against carrageenan-induced edema in po dosed Albino rat. It counts as functional.
Data set [6] has as its system Candida albicans. Description: Antifungal activity against Candida albicans by serial double dilution method. It counts as functional.
The subject of data set [7] is Cryptococcus neoformans. Description: Antifungal activity against Cryptococcus neoformans by serial double dilution method. Format: functional.
In data set [8] the target is T2, Follicle-stimulating hormone receptor (Homo sapiens, UniProt P23945).
T2 sequence (P23945 whole entry): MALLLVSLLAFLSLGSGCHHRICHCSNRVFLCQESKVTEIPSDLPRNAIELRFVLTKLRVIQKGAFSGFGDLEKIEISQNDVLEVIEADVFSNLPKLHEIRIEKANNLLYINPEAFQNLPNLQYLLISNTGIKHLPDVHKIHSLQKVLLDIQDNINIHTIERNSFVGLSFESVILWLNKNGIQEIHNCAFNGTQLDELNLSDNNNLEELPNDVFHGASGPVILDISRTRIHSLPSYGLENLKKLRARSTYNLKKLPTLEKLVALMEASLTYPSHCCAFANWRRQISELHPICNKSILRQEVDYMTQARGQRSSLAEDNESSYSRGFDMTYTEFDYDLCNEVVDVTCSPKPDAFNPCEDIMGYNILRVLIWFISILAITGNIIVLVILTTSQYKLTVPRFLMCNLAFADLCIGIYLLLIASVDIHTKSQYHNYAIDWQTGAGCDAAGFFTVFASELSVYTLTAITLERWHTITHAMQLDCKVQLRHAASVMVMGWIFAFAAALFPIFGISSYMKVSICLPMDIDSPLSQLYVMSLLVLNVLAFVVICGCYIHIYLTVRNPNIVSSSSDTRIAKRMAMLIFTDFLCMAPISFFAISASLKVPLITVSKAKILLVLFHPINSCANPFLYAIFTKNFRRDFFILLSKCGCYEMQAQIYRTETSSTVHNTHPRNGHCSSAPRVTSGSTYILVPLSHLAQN
The experiment in a line: Agonist activity at human recombinant FSH receptor. Format: functional.

For data set [9], the system named is Mus musculus. Description: Potentiation of pentobarbital-induced hypnosis in mouse assessed as sleeping time at 100 mg/kg relative to control. Format: functional.
Data set [10] deals with Alternaria alternata. The experiment in a line: Inhibition of Alternaria tenuis spore germination. Format: functional.

Values after ≈ are worked out from the molar mass of the structure shown.

The values that follow come from ChEMBL document CHEMBL1141658, “4-thiazolidinone--a biologically active scaffold” (Eur J Med Chem, 2008).

As usually defined, the EC50 is the concentration needed to bring the measured effect to its halfway point. `O=C1CSC(c2c(Cl)cccc2Cl)N1Cc1ccco1` (stereo not given): in data set [1], the EC50 came out at 204 nM.

For orientation: inhibition means the percentage by which the read-out fell short of the control. As to `CCCN1C(=O)/C(=C2\C=CC(OC)=CC2)S/C1=N\c1ccccc1`, the inhibition in [2] was 35%; in data set [3] it was 55%.

With `Cc1cccc(N2C(=O)CSC2c2c(Cl)cccc2Cl)n1` (stereo not given), in data set [4], the selectivity ratio was 6470.

One may read the ED50 as the dose at which the effect has come halfway, by size or by number of responders. A higher ED50 goes with weaker potency. Compound `CC1SC(c2ccccc2F)N(c2ccc(Br)cc2C(=O)O)C1=O` (stereo not given) registered an ED50 in data set [5] of 100 mg/kg.

As usually defined, the MIC is the lowest concentration found to suppress growth. As for `CCCCCCCCCCCCN1C(=O)CSC12CCC(C(=O)C(N)Cc1ccccc1)CC2` (stereo not given), the MIC in [6] and in data set [7] was 50 µg/mL (≈ 103 µM) in each case.

As to `COc1ccc(C2SC(CC(=O)NCCC3=CCc4ccccc43)C(=O)N2c2ccc(C(N)=O)c(Cl)c2)cc1` (stereo not given), the EC50 in data set [8] stood at 5000 nM.

For the compound `O=C1CS/C(=N\c2ccccc2)N1c1ncccn1`, the Time in [9] is reported as 98.6 min. For the same compound, the “inhibition (INH)” value in data set [10] stood at 100%.

Turning to `CCN1C(=O)C(C)S/C1=N\c1nc2c(Cl)cccc2s1` (stereo not given), in data set [10], the “inhibition (INH)” value is given as 100%.

`O=C1CS/C(=N\c2ccccc2)N1CCCN1CCOCC1`: the Time in data set [9] came out at 98.6 min. The “inhibition (INH)” value in [10] is 100%.

Compound `CCCCC1C(=O)N(c2ccccc2)N(c2ccccc2)C1=O` [PHENYLBUTAZONE] displayed an ED50 in data set [5] of 94.4 mg/kg.

Take `CCN1C(=O)C(C)S/C1=N\c1nc2cc(Cl)ccc2s1` (stereo not given): the “inhibition (INH)” value in data set [10] is 100%.
